Values joined by “and” are separate entries in the source; they are usually repeats but may differ in a detail not shown here. Equal values may be shown once. Read-outs that look alike come from different tables or passages of the source.
Assays:
maize HiIIA protoplasts = test: Cell division rate by EdU staining (% EdU); type: cell-based; conditions: 100 mM Ca^2+
Protocol: (§1) Cell division was monitored, e.g., by microscopic observations. […] Evidence of cell division was observed by microscopy and included increased cell or protoplast size, bulging membranes, and large groups of organelles occupying the separating daughter cells. Quantification of cell division was carried out using fluorescent staining. Cells were treated with the thymidine analogue 5-ethynyl-2′-deoxyuridine (EdU), which is incorporated into DNA during S-phase and can be fluorescently activated using a fluorochrome that has been conjugated to an azide molecule. Cells that are the result of cellular division in the presence of EdU were identified by the resulting green fluorescent signal, which can be quantified by various means, e.g., with a microplate reader, cell counter, or cell sorter.
In a separate experiment, maize HiIIA protoplasts were grown in 24-well plates using YPIM B-liquid medium containing 100 millimolar Ca^2+ and 20 micromolar EdU. Identical plates were incubated under hypoxia (5% oxygen by volume, 26 degrees Celsius, 80% relative humidity) or ambient oxygen (21% oxygen by volume, 26 degrees Celsius, 80% relative humidity). Entire wells (250 microliters) were taken for EdU detection at four time points. The contents of each well was centrifuged and the pellet subjected to the Click-iT™ EdU Alexa Fluor™ 488 Imaging Kit (catalogue number C10337, Thermo Fisher Scientific, Waltham, Mass.) fluorescent labelling protocol. The labelled protoplasts were resuspended in YPIM B-medium and samples analyzed on a Nexcelom Cellometer (Nexcelom Bioscience LLC, Lawrence, Mass.). This assay was developed to detect the EdU signal from the nucleus of a cell resulting from cell division, as well as the fluorescent signal from chloroplasts as a measure of total cell count. Results are provided in Table 4 as a percentage of cells displaying the EdU signal relative to the total cell count (“% EdU”).

soybean protoplasts = test: Protoplast viability (Evans blue staining, light microscope); type: cell-based
maize B73 protoplasts = conditions: for Viability (%): 100 mM Ca; for protoplast viability: 288 hours, YPIM B- medium
Protocol: (§2) Separate suspensions of maize B73 and A188 protoplasts (2×10^5 cells per milliliter) were prepared in YPIM B-liquid medium containing various combinations of the added salts calcium chloride, potassium ascorbate, and magnesium chloride or magnesium sulfate. One-half milliliter aliquots of the suspensions were dispensed into a 24-well microtiter plate in the arrangement shown in Table 2, which lists the concentrations of calcium chloride (“Ca”), potassium ascorbate (“A”), and magnesium chloride (“MgCl2”) or magnesium sulfate (“MgSO4”) in millimolar values.
(§3) Viability was judged by Evans blue staining and visualization under a light microscope.
Separate suspensions of maize B73, winter wheat, soy, and strawberry protoplasts (2×10^5 cells per milliliter) were prepared in YPIM B-liquid medium containing calcium chloride at 0, 50, or 100 millimolar. One-half milliliter aliquots of the suspensions were dispensed into a 24-well microtiter plate.
Viability at day 8 of culture was judged by visualization under a light microscope.
Viability at day 13 was judged by Evans blue staining and visualization under a light microscope.
(§4) Separate suspensions of maize B73 protoplasts (2×10^5 cells per milliliter) were prepared in PIM B-liquid medium (identical to YPIM B-medium except with the 6-benzylaminopurine substituted with 0.022 milligrams/L thidiazuron) containing calcium chloride added at 0, 5, 20, 40, 70, or 100 millimolar. One-half milliliter aliquots of the suspensions were dispensed into a 24-well microtiter plate.
Viability was judged by visualization under a light microscope at day 7 and at day 14 of culture.
as §4, with “B73 and A188” for “B73”, “0” for “0, 5, 20, 40, 70,”, “50” for “100”
(§5) Viability was judged by visualization under a light microscope.
(§6) Separate suspensions of maize B73 and A188 protoplasts (2×10^5 cells per milliliter) were prepared in YPIM B-liquid medium containing (a) calcium chloride added at 100 millimolar, or (b) 1 millimolar glutathione, or (c) no added calcium or glutathione. One-milliliter aliquots of the suspensions were dispensed into a 24-well microtiter plate. At 16, 40, 64, and 136 hours of culture, 50-microliter samples were taken for hemocytometer analysis from each well; for the plates containing maize A188 protoplasts, parallel 50-microliter samples were taken from a replicate well at 16, 40, and 64 hours of culture for quantification using a Cellometer cell counter (Nexcelom Bioscience LLC, Lawrence, Mass.).
(§7) Viability was determined by Evans blue staining and quantification using a hemocytometer. Under conditions with high concentrations of calcium, Evans blue can create precipitates that interfere with cell counting; to prevent this, 5 microliters of an EDTA solution was added to the samples from the wells containing 100 millimolar calcium chloride immediately prior to staining.

[1] = test system: maize protoplasts (A188, B73, B104, HiIIA, HiIIB); test: Protoplast viability by light microscope, five maize germplasm lines; type: cell-based; conditions: 34 hours, across the five maize lines
Excerpt: as §5

maize A188 protoplasts [2] = test: Protoplast viability (Evans blue staining / light microscope / hemocytometer); type: cell-based; conditions: for Viability (%): 100 mM Ca; for viability / appearance: 50 millimolar; for protoplast viability: 288 hours, YPIM B- medium
Protocol: as §2, §3
Separate suspensions of maize A188 protoplasts (2×10^5 cells per milliliter) were prepared in YPIM B-liquid medium containing calcium chloride at 0 or 50 millimolar. One-half milliliter aliquots of the suspensions were dispensed into a 24-well microtiter plate.
as §5
as §4, with “B73 and A188” for “B73”, “0” for “0, 5, 20, 40, 70,”, “50” for “100”
as §6, §7

maize B104 protoplasts = test: Cell division rate by EdU staining (% EdU); conditions: O2 5%, Ca^2+ 100 mM, glutathione 0 mM, 90 h
Protocol: Cell division rates are expressed as “% EdU” (percentage of cells displaying the EdU signal relative to the total cell count).
Cell division was monitored, e.g., by microscopic observations. […] Evidence of cell division was observed by microscopy and included increased cell or protoplast size, bulging membranes, and large groups of organelles occupying the separating daughter cells. Quantification of cell division was carried out using fluorescent staining. […] Cells that are the result of cellular division in the presence of EdU were identified by the resulting green fluorescent signal, which can be quantified by various means, e.g., with a microplate reader, cell counter, or cell sorter.
Entire wells (1000 microliters) were taken for EdU detection at three time points; analyses were of duplicate samples of each of two replicate wells.

maize A188 protoplasts [3] = test: Signs of cell division by microscopy under 5% or 21% oxygen; type: cell-based; conditions: day 8, 100 millimolar Ca^2+ in YPIM B-, 5% oxygen vs 21% oxygen by volume
Protocol: as §1
In one experiment, maize A188 protoplasts were grown under either 5% or 21% oxygen by volume in YPIM B-liquid medium containing 100 millimolar Ca^2+.

[4] = day 13, 50 millimolar calcium, Evans blue

## [Ca+2].[Cl-].[Cl-] [calcium chloride]
Maize HiIIA protoplasts; 5% oxygen by volume, 93 hours
  % EdU: 12%
Maize HiIIA protoplasts; 5% oxygen by volume, 117 hours
  % EdU: 19%
Maize HiIIA protoplasts; 5% oxygen by volume, 165 hours, listed as Ca^2+
  % EdU: 19% and 15%
Maize HiIIA protoplasts; 21% oxygen by volume, 93 hours
  % EdU: 6.5%
Maize HiIIA protoplasts; 21% oxygen by volume, 117 hours, listed as Ca^2+
  % EdU: 6.9% and 8.0%
Maize HiIIA protoplasts; 21% oxygen by volume, 141 hours, listed as Ca^2+
  % EdU: 13% and 4.8%
Maize HiIIA protoplasts; 21% oxygen by volume, 165 hours, listed as Ca^2+
  % EdU: 5.0% and 0.0%
Soybean protoplasts; day 13, 50 millimolar calcium
  viability: 50%
Soybean protoplasts; day 13, 100 millimolar calcium
  viability: 50%
Maize B73 protoplasts; 0 hours, hemocytometer
  Viability (%): 90%
Maize B73 protoplasts; 16 hours
  Viability (%): 65%
Maize B73 protoplasts; 40 hours
  Viability (%): 57%
Maize B73 protoplasts; 64 hours
  Viability (%): 58%
Maize B73 protoplasts; 136 hours
  Viability (%): 30%
Maize B73 protoplasts; 50 mM added salt
  protoplast viability: almost all dead
Maize B73 protoplasts; 100 mM added salt
  protoplast viability: 10-20%
Maize B73 protoplasts; PIM B- medium, 100 millimolar calcium
  viability and cell division: strongest enhanced viability and cell division
Maize B73 protoplasts; day 6, PIM B- medium, 50 millimolar calcium
  viability: still contained viable cells
Maize B73 protoplasts; day 7, PIM B- medium, 40, 70, or 100 millimolar calcium
  viability and cell division: formed clusters of viable, healthy cells with cell division occurring
Maize B73 protoplasts; day 7, PIM B- medium, less than 40 millimolar calcium
  viability: dead
Maize B73 protoplasts; day 8, 50 millimolar calcium, YPIM B-, light microscope
  viability: 30%
Maize B73 protoplasts; day 8, 100 millimolar calcium, YPIM B-, light microscope
  viability: 80%
Maize B73 protoplasts; [4]
  viability: 0%
  viability of the maize protoplasts (second statement in the sentence): 50%
Maize B73 protoplasts; day 13, 100 millimolar calcium, Evans blue
  viability: 10%
[1]; 50 millimolar calcium
  viability: about 55%
[1]; 100 millimolar calcium
  viability: about 70%
Maize A188 protoplasts [2]; 0 hours, hemocytometer
  Viability (%): 90%
Maize A188 protoplasts [2]; 16 hours
  Viability (%): 67%
Maize A188 protoplasts [2]; 40 hours
  Viability (%): 57%
Maize A188 protoplasts [2]; 64 hours
  Viability (%): 59%
Maize A188 protoplasts [2]; 136 hours
  Viability (%): 46%
Maize A188 protoplasts [2]; 96 hours, vs no added calcium
  viability / appearance: appeared healthier
Maize A188 protoplasts [2]; 168 hours (7 days)
  viability / appearance: very many large, healthy-looking protoplasts
Maize A188 protoplasts [2]; 50 mM added salt
  protoplast viability: about 20%
Maize A188 protoplasts [2]; 100 mM added salt
  protoplast viability: about 70%
Maize A188 protoplasts [2]; day 6, PIM B- medium, 50 millimolar calcium, several wells
  viability: 100%
Maize A188 protoplasts [2]; day 20, 50 millimolar
  cell wall regeneration and cell division: had generated cell walls and undergone at least some cell division
Maize B104 protoplasts
  EdU staining mean %: 21.9%
Maize A188 protoplasts [3]
  signs of cell division: many more protoplasts displaying signs of cell division

From patent US11168319B1, “Plant cell culture” (Inari Agriculture Technology, Inc., priority 2017, dated 2021)
